Experimental data: PMC10910475, “Synthesis and biological profile of 2,3-dihydro[1,3]thiazolo[4,5-b]pyridines, a novel class of acyl-ACP thioesterase inhibitors” (Beilstein Journal of Organic Chemistry, 2024)

Molecular target: T1, LpFAT A (FAT A from LEMPA; acyl-ACP thioesterase) (Lemna aequinoctialis, UniProt Z9A7P1QTQ5)
T1 construct: chloroplast transit peptide replaced by N-terminal 6xHis-tag; pET24; E. coli BL21Star(DE3); Ni-NTA purified
T1 sequence (Z9A7P1QTQ5 10-320): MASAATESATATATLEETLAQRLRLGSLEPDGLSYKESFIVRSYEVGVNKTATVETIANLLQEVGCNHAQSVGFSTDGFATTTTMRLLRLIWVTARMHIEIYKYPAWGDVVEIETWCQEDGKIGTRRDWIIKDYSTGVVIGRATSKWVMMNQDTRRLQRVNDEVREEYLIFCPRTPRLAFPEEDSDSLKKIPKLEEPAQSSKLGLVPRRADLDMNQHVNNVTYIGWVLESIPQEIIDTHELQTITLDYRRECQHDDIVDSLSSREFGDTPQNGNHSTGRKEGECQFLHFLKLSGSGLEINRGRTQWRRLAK
Test: fluorescence polarization competition with fluorescent tracer
Assay type: binding
Details: 25 mM potassium phosphate pH 7.3, 200 mM NaCl, 0.01% Triton X-100, 2 nM tracer, room temperature; value is negative log
From the text: fluorescence polarization competition with fluorescent tracer on LpFAT A (FAT A from LEMPA; acyl-ACP thioesterase)

Row | SMILES | pI50
1 | Cc1cc2c(nc1-c1ccccc1)NCS2 [7a] | 5.9
2 | Cc1cc2c(nc1-c1ccccc1F)NCS2 [7b, 5-(2-Fluorophenyl)-6-methyl-2,3-dihydro[1,3]thiazolo[4,5-b]pyridine] | 6.1
3 | Cc1ccccc1-c1nc2c(cc1C)SCN2 [7c] | 6.3
4 | Brc1cc2c(nc1-c1ccccc1)NCS2 [13a, 6-Bromo-5-phenyl-2,3-dihydrothiazolo[4,5-b]pyridine] | 5.7
5 | Fc1ccccc1-c1nc2c(cc1Br)SCN2 [13b, 6-bromo-5-(2-fluorophenyl)-2,3-dihydro[1,3]thiazolo[4,5-b]pyridine] | 7.3
6 | Cc1ccccc1-c1nc2c(cc1Br)SCN2 [13c, 6-bromo-5-(2-tolyl)-2,3-dihydrothiazolo[4,5-b]pyridine] | 4.5
7 | CC(=O)N1CSc2cc(Br)c(-c3ccccc3)nc21 [14a] | 5.5
8 | CC(C)C(=O)N1CSc2cc(Br)c(-c3ccccc3F)nc21 [14b] | 4.7
9 | CC(=O)N1CSc2cc(Br)c(-c3ccccc3C)nc21 [14c] | 4.3
10 | Cc1ccccc1COC1CC2(C(C)C)CCC1(C)O2 (centres unmarked) [compound 1, cinmethylin, reference compound] | 6.8
11 | Cc1ccsc1C1=NOC(C)(COCc2c(F)cccc2F)C1 (centres unmarked) [compound 2, methiozolin, reference compound] | 7.1
12 | Cc1cc2scnc2nc1-c1ccccc1F [compound 5, 5-(2-fluorophenyl)-6-methyl[1,3]thiazolo[4,5-b]pyridine, reference compound] | 7.2

Now from value to molecule:

Row | pI50 | SMILES
13 | 5.5 | CC(=O)N1CSc2cc(C)c(-c3ccccc3)nc21 [16a]
14 | 4.7 | Cc1cc2c(nc1-c1ccccc1)N(C(=O)C(C)C)CS2 [16b]
15 | 5.3 | CC(=O)N1CSc2cc(C)c(-c3ccccc3F)nc21 [16c, 1-[5-(2-fluorophenyl)-6-methyl[1,3]thiazolo[4,5-b]pyridin-3(2H)-yl]ethanone]
16 | 4.7 | Cc1cc2c(nc1-c1ccccc1F)N(C(=O)C(C)C)CS2 [16d]
17 | 4.1 | CC(=O)N1CSc2cc(C)c(-c3ccccc3C)nc21 [16e]
18 | 4.8 | Cc1ccccc1-c1nc2c(cc1C)SCN2C(=O)C(C)C [16f]
19 | 4.8 | BN1CSc2cc(Br)c(-c3ccccc3C)nc21 [17d, aminoborane 17d]
20 | < 4.0 | Cc1ccccc1-c1nc2c(cc1Br)SCN2B1NB(N)N1 [17e, aminoborane 17e]
